As usually defined, the Ki is the dissociation constant of the complex between target and ligand, obtained from inhibition or displacement.

The record followed here is patent US10844032B2, “Substituted benzofuran, benzothiophene and indole Mcl-1 inhibitors” (Vanderbilt University, priority 2012, dated 2020).

Read-outs that look alike come from different tables or passages of the source. Where only a bound is given, the exact number is not on record here.

For assay [1], the target named is Bcl-2 (residues 1-207 A96T,G110R, Δ35-91, replaced with Bcl-xL35-50) (Homo sapiens, UniProt P10415, A37E/DEL42-87/G36T/INS34DVEEN/P40E/P88T/P90S/P91E/V35R/V89E). Kind of assay: Bak peptide fluorescence polarization anisotropy competition assay, Bcl-2 selectivity. In kind it is binding. The note with it: Table 3; FITC-Bak peptide 10 nM, Bcl-2 40 nM. As for the experimental part:
(§1) Compound affinity was measured using a fluorescence polarization anisotropy competition assay. Anisotropy measurements were carried out in 384-well, black, flat-bottom plates (Greiner Bio-one, Monroe, N.C., USA).
(§2) Compounds are diluted in DMSO in a 10-point, 3-fold serial dilution scheme. 2.5 uL compound is added to 47.5 uL of assay buffer containing FITC-Bak and protein, for a final DMSO concentration of 5% and a top concentration of 20 uM. […] The plate was mixed and incubated for 90 minutes at room temperature.
For orientation: Fluorescence polarisation rises when a labelled molecule tumbles more slowly, as on binding a larger partner.

Assay [2] has as its target Bcl-xL (residues 1-209, loop 45-86 deleted) (Homo sapiens (Human), UniProt Q07817, DEL45-86). In words: Bak peptide fluorescence polarization anisotropy competition assay, Bcl-xL selectivity. The note with it: Table 3; FITC-Bak peptide 10 nM, Bcl-xL 4 nM. It is filed as binding. As for the experimental part:
as §1, §2

Assay [3] relates to K562. In words: Cellular proliferation, CellTiter-Glo, K562. In kind it is cell-based. Conditions: Homo sapiens; K562, 10% FBS, 72 hours. As for the experimental part: (§3) To evaluate compound effect on cellular proliferation, cells were plated at 1,000 cells/well in 96-well tissue culture plates in a total volume of 90 uL medium supplemented with 10% FBS (Sigma, Saint Louis, Mo.). 24 hours later, 10 uL of compound (in a 2-fold serial dilution) is added to the cells for a top concentration of 50 uM and a final DMSO concentration <1%. After 72 hours, cell number was measured using the CellTiter-Glo Luminescent assay according to manufacturer's recommendations (Promega, Madison, Wis.). A viability assay in reduced serum was also conducted. Cells were plated at 5,000 cells/well in 96-well plates in a total volume of 100 uL medium supplemented with 10% FBS (Sigma, Saint Louis, Mo.). 24 hours later, the medium was replaced with 90 uL medium containing 1% FBS and the assay conducted as described. IC50 values were determined by plotting growth against compound concentration in a 4-parameter logisitic model in XLFit.

Assay [4] deals with MDA-MB-468. Kind of assay: Cellular viability in reduced serum, CellTiter-Glo, MDA-MB-468. In kind it is cell-based. Conditions: Homo sapiens, MDA-MB-468, read-out: IC50 on cellular viability, MDA-MB-468. As for the experimental part:
as §3
(In general: In ATP-based viability assays light output follows the ATP content of the culture.)

For assay [5], the system named is NCI-929. In words: Cellular proliferation, CellTiter-Glo, NCI-929. In kind it is cell-based. The note with it: Homo sapiens; NCI-929, 10% FBS, 72 hours. As for the experimental part:
as §3

For assay [6], the system named is MDA-MB-468. Kind of assay: Cellular proliferation, CellTiter-Glo, MDA-MB-468. In kind it is cell-based. The note with it: Homo sapiens, MDA-MB-468, 72 h, read-out: IC50 on cellular proliferation, MDA-MB-468. As for the experimental part:
as §3

For assay [7], the system named is MDA-MB-231. Kind of assay: Cellular viability in reduced serum, CellTiter-Glo, MDA-MB-231. In kind it is cell-based. The note with it: Homo sapiens; MDA-MB-231, reduced serum (1% FBS). As for the experimental part:
as §3

Assay [8] concerns MDA-MB-231. Kind of assay: Cellular proliferation, CellTiter-Glo, MDA-MB-231. In kind it is cell-based. Conditions: Homo sapiens; MDA-MB-231, 10% FBS, 72 hours. As for the experimental part: as §3
The test system of assay [9] is NCI-929. In words: Cellular viability in reduced serum, CellTiter-Glo, NCI-929. In kind it is cell-based. Conditions: Homo sapiens; NCI-929, reduced serum (1% FBS). As for the experimental part: as §3
The test system of assay [10] is K562. Kind of assay: Cellular viability in reduced serum, CellTiter-Glo, K562. Conditions: Homo sapiens; K562, reduced serum (1% FBS). It is filed as cell-based. As for the experimental part:
as §3

For assay [11], the target named is recombinant Mcl-1 (residues 172-327) (Homo sapiens (Human), UniProt Q07820). Kind of assay: Bak peptide fluorescence polarization anisotropy competition assay, Mcl-1. It is filed as binding. The note with it: read-out: Ki for inhibition of Mcl-1.
Sequence of recombinant Mcl-1 (residues 172-327) (Q07820 172-327): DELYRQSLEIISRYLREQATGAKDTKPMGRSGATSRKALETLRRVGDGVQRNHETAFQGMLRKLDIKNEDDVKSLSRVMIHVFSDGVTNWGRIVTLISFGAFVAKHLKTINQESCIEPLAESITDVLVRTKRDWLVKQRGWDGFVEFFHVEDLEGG
[12] abbreviates: Table 2, Ki range, FITC-Bak peptide 10 nM, Mcl-1 14 nM.

Sequence of Bcl-2 (residues 1-207 A96T,G110R, Δ35-91, replaced with Bcl-xL35-50) (P10415 with tags, fused parts or gaps A37E/DEL42-87/G36T/INS34DVEEN/P40E/P88T/P90S/P91E/V35R/V89E): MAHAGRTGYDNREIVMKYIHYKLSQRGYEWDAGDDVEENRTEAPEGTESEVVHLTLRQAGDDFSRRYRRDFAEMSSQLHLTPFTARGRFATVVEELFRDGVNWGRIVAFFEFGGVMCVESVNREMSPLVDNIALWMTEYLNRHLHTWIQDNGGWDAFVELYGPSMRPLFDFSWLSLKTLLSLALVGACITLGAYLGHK
Sequence of Bcl-xL (residues 1-209, loop 45-86 deleted) (Q07817 other isoform, or with tags, fused parts or gaps del 45-86): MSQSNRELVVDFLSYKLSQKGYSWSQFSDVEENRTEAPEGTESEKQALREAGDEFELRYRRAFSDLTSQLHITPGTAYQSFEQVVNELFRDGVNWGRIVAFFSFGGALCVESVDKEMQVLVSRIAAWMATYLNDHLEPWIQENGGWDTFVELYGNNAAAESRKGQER

On to `O=C(O)c1sc2cc(Cl)ccc2c1CCCOc1cccc2ccccc12` [Example 5, 6-chloro-3-(3-(naphthalen-1-yloxy)propyl)benzo[b]thiophene-2-carboxylic acid], for which the inhibition constant (Ki) in assay [1] came to 1.1 µM.

In the case of `Cc1cc(OCCCc2c(C(=O)O)sc3cc(Cl)ccc23)cc(C)c1Cl` [Example 6], the Ki in assay [2] was found to be 2.4 µM; in assay [1], 0.99 µM.

`O=C(O)c1oc2ccccc2c1CCCOc1cccc2ccccc12` [Example 21, 3-(3-(naphthalen-1-yloxy)propyl)benzofuran-2-carboxylic acid] returned a Ki in [1] of 4.6 µM.

As to `Cc1cc(OCCCc2c(C(=O)NS(=O)(=O)c3ccccc3)[nH]c3c(-c4cccnc4C)cccc23)cc(C)c1Cl` [Example 97, 3-(3-(4-chloro-3,5-dimethylphenoxy)propyl)-7-(2-methylpyridin-3-yl)-N-(phenylsulfonyl)-1H-indole-2-carboxamide], the IC50 amounted to 17.9 µM in the assay on K562 [3]; 11.2 µM in the assay with MDA-MB-468 [4]; 23.3 µM in the assay on NCI-929 [5]; 13.8 µM in the assay with MDA-MB-468 [6]; 12.9 µM in the assay on MDA-MB-231 [7]; 16.9 µM in the assay with MDA-MB-231 [8]. Besides, the IC50 with NCI-929 [9] came to 5.1 µM; with K562 [10], 2.6 µM.

Take `Cc1cc(OCCCc2c(C(=O)NS(=O)(=O)CCNC(=O)c3cccn3C)[nH]c3c(-c4c(CO)nn(C)c4C)cccc23)cc(C)c1Cl` [Example 206, 3-(3-(4-chloro-3,5-dimethylphenoxy)propyl)-7-(3-(hydroxymethyl)-1,5-dimethyl-1H-1-pyrazol-4-yl)-N-((2-(1-methyl-1H-pyrrole-2-carboxamido)ethyl)sulfonyl)-1H-indole-2-carboxamide]: in [11] (setting [12]), the Ki is ≤ 0.1 µM. Also, the IC50 was > 50 µM in the assay on K562 [3]; 26.8 µM in the assay with MDA-MB-468 [4]; > 50 µM in the assay on NCI-929 [5]; 50 µM in the assay with MDA-MB-468 [6]; 18.4 µM with MDA-MB-231 [7]; > 50 µM in the assay with MDA-MB-231 [8]. In addition, the IC50 is 33.9 µM with NCI-929 [9] and 10.7 µM in the assay with K562 [10].

Regarding `Cc1cc(OCCCc2c(C(=O)NS(=O)(=O)CCNC(=O)c3cccn3Cc3ccccc3)[nH]c3c(-c4c(CO)nn(C)c4C)cccc23)cc(C)c1Cl` [Example 207, N-((2-(1-benzyl-1H-pyrrole-2-carboxamido)ethyl)sulfonyl)-3-(3-(4-chloro-3,5-dimethylphenoxy)propyl)-7-(3-(hydroxymethyl)-1,5-dimethyl-1H-pyrazol-4-yl)-1H-indole-2-carboxamide], the Ki in assay [11] (setting [12]) was ≤ 0.1 µM. Besides, the IC50 was > 50 µM with K562 [3]; 14.8 µM in the assay on MDA-MB-468 [4]; 30 µM with NCI-929 [5]; 45.7 µM in the assay with MDA-MB-468 [6]; 14.2 µM in the assay on MDA-MB-231 [7]; > 50 µM in the assay with MDA-MB-231 [8]. In addition, the IC50 in the assay with NCI-929 [9] was 12 µM; with K562 [10], 10.1 µM.

As for `CCn1nccc1-c1cccc2c(CCCOc3cc(C)c(Cl)c(C)c3)c(C(=O)NS(=O)(=O)c3ccccc3)[nH]c12` [Example 302, 3-(3-(4-chloro-3,5-dimethylphenoxy)propyl)-7-(1-ethyl-1H-pyrazol-5-yl)-N-(phenylsulfonyl)-1H-indole-2-carboxamide], the Ki in assay [11] (setting [12]) is ≤ 0.1 µM.

Regarding `CCCn1nccc1-c1cccc2c(CCCOc3cc(C)c(Cl)c(C)c3)c(C(=O)NS(=O)(=O)c3ccccc3)[nH]c12` [Example 303, 3-(3-(4-chloro-3,5-dimethylphenoxy)propyl)-N-(phenylsulfonyl)-7-(1-propyl-1H-pyrazol-5-yl)-1H-indole-2-carboxamide], in assay [11] (setting [12]), the Ki is ≤ 0.1 µM.

For `Cc1cc(OCCCc2c(C(=O)NS(=O)(=O)c3ccccc3)[nH]c3c(-c4ccnn4C(C)C)cccc23)cc(C)c1Cl` [Example 304, 3-(3-(4-chloro-3,5-dimethylphenoxy)propyl)-7-(1-isopropyl-1H-pyrazol-5-yl)-N-(phenylsulfonyl)-1H-indole-2-carboxamide], in assay [11] (setting [12]), the Ki is ≤ 0.1 µM.

On to `Cc1cc(OCCCc2c(C(=O)NS(=O)(=O)c3ccccc3)[nH]c3c(-c4c(C)n[nH]c4C)cccc23)cc(C)c1Cl` [Example 305, 3-(3-(4-chloro-3,5-dimethylphenoxy)propyl)-7-(3,5-dimethyl-1H-pyrazol-4-yl)-N-(phenylsulfonyl)-1H-indole-2-carboxamide], for which, in [11] (setting [12]), the Ki was ≤ 0.1 µM.

For `Cc1cc(OCCCc2c(C(=O)NS(=O)(=O)c3ccccc3)[nH]c3c(-c4c(COCCN(C)C)nn(C)c4C)cccc23)cc(C)c1Cl` [Example 308, 3-(3-(4-chloro-3,5-dimethylphenoxy)propyl)-7-(3-((2-(dimethylamino)ethoxy)methyl)-1,5-dimethyl-1H-pyrazol-4-yl)-N-(phenylsulfonyl)-1H-indole-2-carboxamide], in [11] (setting [12]), the Ki was ≤ 0.1 µM.

In the case of `Cc1cc(OCCCc2c(C(=O)NS(=O)(=O)C3CCN(C(=O)CCc4ccccc4)CC3)[nH]c3cc(Cl)ccc23)cc(C)c1Cl` [Example 310, 6-chloro-3-(3-(4-chloro-3,5-dimethylphenoxy)propyl)-N-((1-(3-phenylpropanoyl)piperidin-4-yl)sulfonyl)-1H-indole-2-carboxamide], the Ki in assay [11] lay within 0.101 to 0.299 µM.
